Assay results: the NIST ThermoML archive (doi:10.1021/acs.jced.8b00554)
± gives the expanded uncertainty stated by the source.

Assay: xn = mol fraction of the nth substance listed
Settings: Liquid, Vibrating tube method

CCCCCCCCC [nonane] + CCCO
mass density [kg/m3]
Settings | 353.15 K | 363.15 K
100 kPa, x2 = 0.1231 | – | 655.98 ± 4.2
100 kPa, x2 = 0.2315 | – | 657.04 ± 4.2
100 kPa, x2 = 0.3229 | – | 658.57 ± 4.2
100 kPa, x2 = 0.4272 | – | 662.45 ± 4.2
100 kPa, x2 = 0.7021 | – | 683 ± 4.4
100 kPa, x2 = 0.8941 | – | 710.52 ± 4.5
1000 kPa, x2 = 0.1231 | – | 657.23 ± 4.2
1000 kPa, x2 = 0.8941 | – | 710.94 ± 4.5
1010 kPa, x2 = 0.2315 | – | 659.34 ± 4.2
1010 kPa, x2 = 0.4272 | – | 664.09 ± 4.2
1010 kPa, x2 = 0.7021 | – | 683.53 ± 4.4
1020 kPa, x2 = 0.3229 | – | 660.57 ± 4.2
2010 kPa, x2 = 0.1231 | – | 658.47 ± 4.2
2010 kPa, x2 = 0.2315 | – | 660.57 ± 4.2
2010 kPa, x2 = 0.3229 | – | 661.82 ± 4.2
2010 kPa, x2 = 0.4272 | – | 665.32 ± 4.3
2010 kPa, x2 = 0.7021 | – | 684.79 ± 4.4
2010 kPa, x2 = 0.8941 | – | 712.1 ± 4.6
3010 kPa, x2 = 0.2315 | – | 661.79 ± 4.2
3010 kPa, x2 = 0.3229 | – | 663.05 ± 4.2
3010 kPa, x2 = 0.7021 | – | 686.04 ± 4.4
3010 kPa, x2 = 0.8941 | – | 713.33 ± 4.6
3020 kPa, x2 = 0.1231 | – | 659.67 ± 4.2
3020 kPa, x2 = 0.4272 | – | 666.57 ± 4.3
4010 kPa, x2 = 0.1231 | – | 660.89 ± 4.2
4010 kPa, x2 = 0.3229 | – | 664.28 ± 4.3
4010 kPa, x2 = 0.4272 | – | 667.83 ± 4.3
4010 kPa, x2 = 0.7021 | – | 687.34 ± 4.4
4010 kPa, x2 = 0.8941 | – | 714.55 ± 4.6
4020 kPa, x2 = 0.2315 | – | 663.04 ± 4.2
5000 kPa, x2 = 0.4272 | – | 669.09 ± 4.3
5000 kPa, x2 = 0.7021 | – | 688.61 ± 4.4
5010 kPa, x2 = 0.1231 | – | 662.09 ± 4.2
5010 kPa, x2 = 0.2315 | – | 664.23 ± 4.3
5010 kPa, x2 = 0.3229 | – | 665.52 ± 4.3
5010 kPa, x2 = 0.8941 | – | 715.78 ± 4.6
6000 kPa, x2 = 0.7021 | – | 689.86 ± 4.4
6010 kPa, x2 = 0.2315 | – | 665.41 ± 4.3
6010 kPa, x2 = 0.4272 | – | 670.36 ± 4.3
6010 kPa, x2 = 0.8941 | – | 717.03 ± 4.6
6020 kPa, x2 = 0.1231 | – | 663.3 ± 4.2
6020 kPa, x2 = 0.3229 | – | 666.76 ± 4.3
7000 kPa, x2 = 0.3229 | – | 667.99 ± 4.3
7000 kPa, x2 = 0.7021 | – | 691.15 ± 4.4
7010 kPa, x2 = 0.1231 | – | 664.48 ± 4.3
7010 kPa, x2 = 0.2315 | – | 666.62 ± 4.3
7020 kPa, x2 = 0.4272 | – | 671.62 ± 4.3
7020 kPa, x2 = 0.8941 | – | 718.27 ± 4.6
8000 kPa, x2 = 0.3229 | – | 669.23 ± 4.3
8000 kPa, x2 = 0.7021 | – | 692.44 ± 4.4
8010 kPa, x2 = 0.8941 | – | 719.48 ± 4.6
8020 kPa, x2 = 0.1231 | – | 665.72 ± 4.3
8020 kPa, x2 = 0.2315 | – | 667.87 ± 4.3
8020 kPa, x2 = 0.4272 | – | 672.88 ± 4.3
9000 kPa, x2 = 0.2315 | – | 669.09 ± 4.3
9000 kPa, x2 = 0.3229 | – | 670.48 ± 4.3
9010 kPa, x2 = 0.7021 | – | 693.71 ± 4.5
9010 kPa, x2 = 0.8941 | – | 720.71 ± 4.6
9020 kPa, x2 = 0.1231 | – | 666.89 ± 4.3
9020 kPa, x2 = 0.4272 | – | 674.14 ± 4.3
10010 kPa, x2 = 0.1231 | – | 668.07 ± 4.3
10010 kPa, x2 = 0.2315 | – | 670.27 ± 4.3
10010 kPa, x2 = 0.3229 | – | 671.75 ± 4.3
10010 kPa, x2 = 0.4272 | – | 675.41 ± 4.3
10010 kPa, x2 = 0.7021 | – | 694.96 ± 4.5
10010 kPa, x2 = 0.8941 | – | 721.93 ± 4.6
11000 kPa, x2 = 0.1231 | 679.16 ± 4.4 | –
11000 kPa, x2 = 0.4272 | 688.79 ± 4.4 | –
11010 kPa, x2 = 0.1231 | – | 669.29 ± 4.3
11010 kPa, x2 = 0.2315 | 682.07 ± 4.4 | 671.48 ± 4.3
11010 kPa, x2 = 0.3229 | – | 672.98 ± 4.3
11010 kPa, x2 = 0.4272 | – | 676.62 ± 4.3
11010 kPa, x2 = 0.7021 | 709.06 ± 4.5 | –
11010 kPa, x2 = 0.8941 | 735.52 ± 4.7 | 723.15 ± 4.6
11020 kPa, x2 = 0.3229 | 684.47 ± 4.4 | –
11020 kPa, x2 = 0.7021 | – | 696.2 ± 4.5
12000 kPa, x2 = 0.3229 | 685.59 ± 4.4 | 674.18 ± 4.3
12000 kPa, x2 = 0.7021 | 710.18 ± 4.5 | 697.42 ± 4.5
12010 kPa, x2 = 0.1231 | 680.24 ± 4.4 | 670.44 ± 4.3
12010 kPa, x2 = 0.2315 | 683.2 ± 4.4 | 672.7 ± 4.3
12010 kPa, x2 = 0.4272 | 689.92 ± 4.4 | 677.87 ± 4.3
12010 kPa, x2 = 0.8941 | 736.6 ± 4.7 | 724.32 ± 4.6
13000 kPa, x2 = 0.4272 | – | 679.08 ± 4.4
13000 kPa, x2 = 0.8941 | – | 725.44 ± 4.7
13010 kPa, x2 = 0.1231 | 681.32 ± 4.4 | 671.61 ± 4.3
13010 kPa, x2 = 0.3229 | – | 675.41 ± 4.3
13010 kPa, x2 = 0.4272 | 691.03 ± 4.4 | –
13010 kPa, x2 = 0.7021 | 711.31 ± 4.6 | 698.65 ± 4.5
13010 kPa, x2 = 0.8941 | 737.63 ± 4.7 | –
13020 kPa, x2 = 0.2315 | 684.28 ± 4.4 | 673.89 ± 4.3
13020 kPa, x2 = 0.3229 | 686.69 ± 4.4 | –
14000 kPa, x2 = 0.3229 | 687.76 ± 4.4 | 676.57 ± 4.3
14000 kPa, x2 = 0.4272 | 692.13 ± 4.4 | –
14000 kPa, x2 = 0.8941 | 738.72 ± 4.7 | –
14010 kPa, x2 = 0.1231 | 682.37 ± 4.4 | –
14010 kPa, x2 = 0.2315 | 685.35 ± 4.4 | –
14010 kPa, x2 = 0.4272 | – | 680.27 ± 4.4
14010 kPa, x2 = 0.7021 | – | 699.83 ± 4.5
14010 kPa, x2 = 0.8941 | – | 726.63 ± 4.7
14020 kPa, x2 = 0.1231 | – | 672.74 ± 4.3
14020 kPa, x2 = 0.2315 | – | 675.04 ± 4.3
14020 kPa, x2 = 0.7021 | 712.38 ± 4.6 | –
15000 kPa, x2 = 0.2315 | – | 676.17 ± 4.3
15000 kPa, x2 = 0.4272 | 693.19 ± 4.5 | –
15010 kPa, x2 = 0.1231 | 683.4 ± 4.4 | 673.85 ± 4.3
15010 kPa, x2 = 0.3229 | 688.83 ± 4.4 | 677.73 ± 4.3
15010 kPa, x2 = 0.4272 | – | 681.42 ± 4.4
15010 kPa, x2 = 0.7021 | 713.45 ± 4.6 | –
15010 kPa, x2 = 0.8941 | – | 727.76 ± 4.7
15020 kPa, x2 = 0.2315 | 686.39 ± 4.4 | –
15020 kPa, x2 = 0.7021 | – | 700.99 ± 4.5
15020 kPa, x2 = 0.8941 | 739.75 ± 4.7 | –
16000 kPa, x2 = 0.2315 | 687.43 ± 4.4 | 677.27 ± 4.3
16000 kPa, x2 = 0.8941 | 740.76 ± 4.8 | –
16010 kPa, x2 = 0.1231 | 684.41 ± 4.4 | 674.91 ± 4.3
16010 kPa, x2 = 0.3229 | – | 678.86 ± 4.4
16010 kPa, x2 = 0.4272 | 694.24 ± 4.5 | 682.56 ± 4.4
16010 kPa, x2 = 0.7021 | 714.52 ± 4.6 | –
16020 kPa, x2 = 0.3229 | 689.88 ± 4.4 | –
16020 kPa, x2 = 0.7021 | – | 702.15 ± 4.5
16020 kPa, x2 = 0.8941 | – | 728.86 ± 4.7
17000 kPa, x2 = 0.1231 | – | 676 ± 4.3
17000 kPa, x2 = 0.8941 | 741.78 ± 4.8 | 729.95 ± 4.7
17010 kPa, x2 = 0.1231 | 685.42 ± 4.4 | –
17010 kPa, x2 = 0.2315 | – | 678.41 ± 4.4
17010 kPa, x2 = 0.3229 | 690.92 ± 4.4 | –
17010 kPa, x2 = 0.4272 | 695.25 ± 4.5 | 683.64 ± 4.4
17010 kPa, x2 = 0.7021 | 715.56 ± 4.6 | –
17020 kPa, x2 = 0.2315 | 688.48 ± 4.4 | –
17020 kPa, x2 = 0.3229 | – | 679.98 ± 4.4
17020 kPa, x2 = 0.7021 | – | 703.28 ± 4.5
18000 kPa, x2 = 0.3229 | 691.91 ± 4.4 | –
18000 kPa, x2 = 0.7021 | 716.55 ± 4.6 | –
18010 kPa, x2 = 0.1231 | 686.41 ± 4.4 | 677.05 ± 4.3
18010 kPa, x2 = 0.2315 | 689.45 ± 4.4 | 679.45 ± 4.4
18010 kPa, x2 = 0.4272 | – | 684.75 ± 4.4
18010 kPa, x2 = 0.7021 | – | 704.37 ± 4.5
18010 kPa, x2 = 0.8941 | 742.76 ± 4.8 | –
18020 kPa, x2 = 0.3229 | – | 681.03 ± 4.4
18020 kPa, x2 = 0.4272 | 696.27 ± 4.5 | –
18020 kPa, x2 = 0.8941 | – | 731.02 ± 4.7
19000 kPa, x2 = 0.2315 | – | 680.43 ± 4.4
19000 kPa, x2 = 0.3229 | 692.9 ± 4.5 | –
19000 kPa, x2 = 0.4272 | 697.25 ± 4.5 | –
19000 kPa, x2 = 0.7021 | – | 705.41 ± 4.5
19010 kPa, x2 = 0.1231 | 687.34 ± 4.4 | 678.04 ± 4.3
19010 kPa, x2 = 0.2315 | 690.38 ± 4.4 | –
19010 kPa, x2 = 0.3229 | – | 682.1 ± 4.4
19010 kPa, x2 = 0.4272 | – | 685.8 ± 4.4
19010 kPa, x2 = 0.8941 | 743.72 ± 4.8 | 732.06 ± 4.7
19020 kPa, x2 = 0.7021 | 717.54 ± 4.6 | –
20000 kPa, x2 = 0.1231 | 688.24 ± 4.4 | –
20000 kPa, x2 = 0.2315 | 691.33 ± 4.4 | –
20000 kPa, x2 = 0.3229 | 693.81 ± 4.5 | –
20010 kPa, x2 = 0.1231 | – | 679 ± 4.4
20010 kPa, x2 = 0.2315 | – | 681.42 ± 4.4
20010 kPa, x2 = 0.3229 | – | 683.05 ± 4.4
20010 kPa, x2 = 0.4272 | 698.23 ± 4.5 | 686.85 ± 4.4
20010 kPa, x2 = 0.7021 | 718.51 ± 4.6 | –
20020 kPa, x2 = 0.7021 | – | 706.48 ± 4.5
20020 kPa, x2 = 0.8941 | 744.66 ± 4.8 | 733.04 ± 4.7
